Assay results: patent publication US20040102511A1, “Substituted pyrrole derivatives” (priority 2002, published 2004)
pIC50: −log10 of the molar value. Where a name gives a salt, the structure may show the parent alone.

Target: T1, HMG-CoA reductase (Rattus norvegicus, UniProt P51639)
T1 construct: were preincubated with liver microsomes at 37° C. for 30 minutes; from tissue
T1 sequence (P51639 1-887): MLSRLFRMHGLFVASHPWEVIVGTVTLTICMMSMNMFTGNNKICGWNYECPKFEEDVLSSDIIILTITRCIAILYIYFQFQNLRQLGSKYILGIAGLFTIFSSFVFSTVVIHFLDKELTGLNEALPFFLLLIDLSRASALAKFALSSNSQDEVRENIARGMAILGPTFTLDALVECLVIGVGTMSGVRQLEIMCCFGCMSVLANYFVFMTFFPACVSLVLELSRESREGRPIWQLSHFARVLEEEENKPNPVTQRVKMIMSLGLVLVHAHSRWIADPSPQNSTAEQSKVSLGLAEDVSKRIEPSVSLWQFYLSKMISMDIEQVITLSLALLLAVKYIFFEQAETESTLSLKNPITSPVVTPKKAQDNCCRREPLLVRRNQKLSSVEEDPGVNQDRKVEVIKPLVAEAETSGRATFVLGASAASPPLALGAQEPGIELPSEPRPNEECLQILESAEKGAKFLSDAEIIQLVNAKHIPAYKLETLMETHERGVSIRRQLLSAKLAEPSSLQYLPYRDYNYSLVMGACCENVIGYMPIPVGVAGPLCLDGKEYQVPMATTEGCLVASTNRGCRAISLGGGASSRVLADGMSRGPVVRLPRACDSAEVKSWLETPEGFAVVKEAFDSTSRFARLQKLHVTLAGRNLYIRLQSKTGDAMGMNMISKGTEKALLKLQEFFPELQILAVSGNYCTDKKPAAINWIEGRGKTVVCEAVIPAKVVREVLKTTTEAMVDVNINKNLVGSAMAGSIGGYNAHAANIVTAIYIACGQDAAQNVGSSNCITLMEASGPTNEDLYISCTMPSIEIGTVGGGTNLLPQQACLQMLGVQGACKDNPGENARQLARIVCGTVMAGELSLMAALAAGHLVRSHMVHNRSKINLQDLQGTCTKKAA
Experiment: in-vitro HMG-CoA reductase enzyme assay (liver microsomes, [14C] HMG-CoA)
Type: biochemical
Conditions: 2.5 μM [14C] HMG-CoA as substrate, 37° C. for 15 minutes; compounds preincubated with liver microsomes at 37° C. for 30 minutes
Experimental: HMG-CoA reductase is a rate-limiting enzyme in the cholesterol biosynthesis, catalyzing the following reaction.
[^14C] HMG-CoA+2NADPH+2H^+→[^14C] mevanolate+CoA+2NADP^+ microsomes,
HMG-CoA as a substrate. The reaction was carried out in the presence of 100 mM KH2PO4, 20 mM G-6-P, 2.5 mM NADPH, 10 mM EDTA, 5 mM DTT and […] G-6-P dehydrogenase, at 37° C. for 15 minutes and quantitating [^14C] mevalonate as an end product.

pIC50	Molecule
10.91	CC(C)c1c(C(=O)Nc2ccccc2)c(-c2ccccc2)c(-c2ccc(F)cc2F)n1CC[C@@H](O)C[C@@H](O)CC(=O)O [Compound No. 12, (3R,5R)-7-[2-(2,4-Difluorophenyl)-5-isopropyl-3-phenyl-4-[(phenylamino)carbonyl]-pyrrol-1-yl]-3,5-dihydroxy-1-heptanoic acid calcium salt]
10.47	Cc1ccc(-c2c(C(=O)Nc3ccccc3)c(C(C)C)n(CC[C@@H](O)C[C@@H](O)CC(=O)O)c2-c2ccc(F)cc2)cc1 [Compound No. 17, (3R,5R)-7-[2-(4-Fluorophenyl)-5-isopropyl-3-(4-methylphenyl)-4-[(phenylamino)carbonyl]-pyrrol-1-yl]-3,5-dihydroxy-1-heptanoic acid calcium salt]
10.90	CC(C)c1c(C(=O)Nc2ccccc2)c(-c2ccc(C(F)(F)F)cc2)c(-c2ccc(F)cc2)n1CC[C@@H](O)C[C@@H](O)CC(=O)O [Compound No. 18, (3R,5R)-7-[2-(4-Fluorophenyl)-5-isopropyl-3-(4-trifluoromethylphenyl)-4-[(phenylamino)carbonyl]-pyrrol-1-yl]-3,5-dihydroxy-1-heptanoic acid calcium salt]
10.91	O=C(O)C[C@H](O)C[C@H](O)CCn1c(-c2ccc(F)cc2)c(-c2ccccc2)c(C(=O)Nc2ccccc2)c1C1CC1 [Compound No. 19, (3R,5R)-7-[2-(4-Fluorophenyl)-5-cyclopropyl-3-phenyl-4-[(phenylamino)carbonyl]-pyrrol-1-yl]-3,5-dihydroxy-1-heptanoic acid calcium salt]
10.41	CC(C)c1nc(N(C)S(C)(=O)=O)nc(-c2ccc(F)cc2)c1/C=C/[C@@H](O)C[C@@H](O)CC(=O)O [Rosuvastatin, reference compound]

Further lines, the molecule ahead of its results:

Molecule	pIC50
CC(C)c1c(C(=O)Nc2ccccc2F)c(-c2ccccc2)c(-c2ccc(F)cc2)n1CC[C@@H](O)C[C@@H](O)CC(=O)O [Compound No. 2, (3R,5R)-7-[2-(4-Fluorophenyl)-5-isopropyl-3-phenyl-4-[(2-fluorophenylamino)carbonyl]-pyrrol-1-yl]-3,5-dihydroxy-1-heptanoic acid calcium salt]	10.75
CC(C)c1c(C(=O)Nc2ccccc2)c(-c2ccccc2)c(-c2ccc(F)c(F)c2)n1CC[C@@H](O)C[C@@H](O)CC(=O)O [Compound No. 13, (3R,5R)-7-[2-(3,4-Difluorophenyl)-5-isopropyl-3-phenyl-4-[(phenylamino)carbonyl]-pyrrol-1-yl]-3,5-dihydroxy-1-heptanoic acid calcium salt]	11.20
(3R,5R)-7-[2,3-Di-(4-fluorophenyl)-5-isopropyl-4-[(phenylamino) carbonyl]-pyrrol-1-yl]-3,5-dihydroxy-1-heptanoic acid calcium salt [Compound No. 16]	10.46
(3R,5R)-7-[2-(4-Fluorophenyl)-5-isopropyl-3-(2,4-difluorophenyl)-4-[(phenylamino)carbonyl]-1H-pyrrol-3,5-dihydroxy-1-heptanoic acid calcium salt [Compound No. 15]	10.91
(3R,5R)-7-[2-(4-Fluorophenyl)-5-isopropyl-3-phenyl-4-[(3-fluorophen ylamino)carbonyl]-pyrrol-1-yl]-3,5-dihydroxy 1-heptanoic acid calcium salt [Compound No. 3]	10.62
(3R,5R)-7-[2-(4-Fluorophenyl)-5-isopropyl-3-phenyl-4-[(4-fluorophenylamino)carbonyl]-pyrrol-1-yl]-3,5-dihydroxy-1-heptanoic acid calcium salt [Compound No. 4]	11.01
(3R,5R)-7-[2-(4-Fluorophenyl)-5-isopropyl-3-phenyl-4-[(pyridin-2-yl-amino)carbonyl]pyrrol-1-yl]-3,5-dihydroxy-1-heptanoic acid calcium salt [Compound No. 5]	10.71
